Source: ChEMBL document CHEMBL3400038, “Synthesis and evaluation of benzosuberone embedded with 1,3,4-oxadiazole, 1,3,4-thiadiazole and 1,2,4-triazole moieties as new potential anti proliferative agents” (2015)

Columns and labels:
Assay type in all cases: functional
MDA-MB-231 = assay: Antiproliferative activity against human MDA-MB-231 cells after 48 hrs by SRB assay; details: MDA-MB-231, 48 h
[1] = Antiproliferative activity against human PANC1 cells after 48 hrs by SRB assay; details: PANC-1, 48 h
HeLa = assay: Antiproliferative activity against human HeLa cells after 48 hrs by SRB assay
A549 = assay: Antiproliferative activity against human A549 cells after 48 hrs by SRB assay; details: A549, 48 h

Row | GI50 (MDA-MB-231) [µM] | GI50 (HeLa) [µM] | GI50 (A549) [µM] | Structure (SMILES) | GI50 [1] [µM]
1 | 1.4 | 6.42 | 2.81 | Cc1cc2c(cc1C)C(Cl)=C(c1nnc(-c3ccc(F)cc3)o1)CCC2 | 0.52
2 | 3.31 | 5.94 | 1.97 | Cc1cc2c(cc1C)C(Cl)=C(c1nnc(-c3cccc(Cl)c3)o1)CCC2 | 4.57
3 | 2.67 | 4.46 | 2.78 | Cc1cc2c(cc1C)C(Cl)=C(c1nnc(-c3cccc(I)c3)o1)CCC2 | 4.12
4 | 2.46 | 1.57 | 1.97 | Cc1cc2c(cc1C)C(Cl)=C(c1nnc(-c3cccc(C(F)(F)F)c3)o1)CCC2 | 0.794
5 | 2.76 | 4.67 | 1.96 | Cc1cc2c(cc1C)C(Cl)=C(c1nnc(-c3ccccc3)o1)CCC2 | 4.12
6 | 1.76 | 0.679 | 2.47 | Cc1ccc(-c2nnc(C3=C(Cl)c4cc(C)c(C)cc4CCC3)o2)cc1 | 3.88
7 | 0.956 | 0.562 | 1.26 | COc1cc(-c2nnc(C3=C(Cl)c4cc(C)c(C)cc4CCC3)o2)cc(OC)c1OC | 1.88
8 | 1.16 | 0.31 | 0.871 | COc1ccc([N+](=O)[O-])c(-c2nnc(C3=C(Cl)c4cc(C)c(C)cc4CCC3)o2)c1OC | 0.957
9 | 1.4 | 0.079 | 3.42 | Cc1ccc(-c2nnc(C3=C(Cl)c4ccccc4CCC3)o2)cc1 | 6.81
10 | 3.32 | 1.73 | 4.57 | COc1cc(-c2nnc(C3=C(Cl)c4ccccc4CCC3)o2)cc(OC)c1OC | 0.729
11 | 3.28 | 1.32 | 2.61 | O=[N+]([O-])c1ccc(-c2nnc(C3=C(Cl)c4ccccc4CCC3)o2)cc1 | 3.98
12 | 8.28 | 2.83 | 5.36 | COc1ccc([N+](=O)[O-])c(-c2nnc(C3=C(Cl)c4ccccc4CCC3)o2)c1OC | 7.23
13 | 4.94 | 4.1 | 2.56 | ClC1=C(c2nnc(-c3cccc(I)c3)o2)CCCc2ccccc21 | 2.37
14 | 5.78 | 4.92 | 4.78 | Cc1cc2c(cc1C)C(Cl)=C(c1nnc(Nc3ccccc3)s1)CCC2 | 3.67
15 | 1.01 | 0.981 | 4.96 | S=c1[nH]nc(C2=C(Cl)c3ccccc3CCC2)o1 | 3.43
16 | 0.918 | 4.44 | 3.27 | Cc1cc2c(cc1C)C(Cl)=C(c1n[nH]c(=S)o1)CCC2 | 2.46
17 | 1.97 | 3.22 | 2.27 | ClC1=C(c2nnc(-c3ccccc3)o2)CCCc2ccccc21 | 0.675
18 | 2.46 | 3.87 | 4.88 | O=C(NNC(=S)Nc1ccccc1)C1=C(Cl)c2ccccc2CCC1 | 5.85
19 | 3.14 | 0.471 | 0.759 | Cc1cc2c(cc1C)C(Cl)=C(C(=O)NNC(=S)Nc1ccccc1)CCC2 | 0.928
20 | 4.93 | 5.5 | 3.49 | Sc1nnc(C2=C(Cl)c3ccccc3CCC2)n1-c1ccccc1 | 3.51
21 | 2.64 | 1.16 | 1.49 | Cc1cc2c(cc1C)C(Cl)=C(c1nnc(S)n1-c1ccccc1)CCC2 | 2.65
22 | 0.947 | 1.32 | 2.35 | ClC1=C(c2nnc(Nc3ccccc3)s2)CCCc2ccccc21 | 0.158
23 | < 0.01 | 0.04 | 0.03 | COc1cc2c(c(OC)c1OC)-c1ccc(OC)c(=O)cc1[C@@H](NC(C)=O)CC2 [COLCHICINE] | 0.01
24 | 0.019 | 0.01 | 0.01 | COc1ccc(C[C@@H](O)c2cc(OC)c(OC)c(OC)c2)cc1O [COMBRETASTATIN] | 0.02
25 | 0.02 | < 0.01 | < 0.01 | COc1cccc2c1C(=O)c1c(O)c3c(c(O)c1C2=O)C[C@@](O)(C(=O)CO)C[C@@H]3O[C@H]1C[C@H](N)[C@H](O)[C@H](C)O1 [DOXORUBICIN] | < 0.01
26 | 0.017 | 0.015 | 0.02 | COC(=O)Nc1nc2cc(C(=O)c3cccs3)ccc2[nH]1 [NOCODAZOLE] | < 0.01
27 | < 0.01 | 0.02 | < 0.01 | CC(=O)O[C@H]1C(=O)[C@@]2(C)[C@H]([C@H](OC(=O)c3ccccc3)[C@]3(O)C[C@H](OC(=O)[C@H](O)[C@@H](NC(=O)c4ccccc4)c4ccccc4)C(C)=C1C3(C)C)[C@]1(OC(C)=O)CO[C@@H]1C[C@@H]2O [PACLITAXEL] | 0.012
